Data on eleven compounds can be found in US11981658B2, “Substituted aminopyridine compounds as EGFR inhibitors” (YUHAN CORPORATION, priority 2021, dated 2024).

Experiment [1] has as its target EGFR Del19/C797S (Homo sapiens, UniProt P00533, C797S/DEL746-750). As to the kind of experiment: Biochemical EGFR kinase inhibition assay (Lance Ultra TR-FRET), double mutant del19/C797S. In short, it runs like this: (§1)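 Step 1: compound in kinase buffer, 0.003–10 μM. Step 2: kinase reaction 1 h at room temperature. Step 4: TR-FRET read at 615/665 nm; IC50 calculated.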
On the technique in general: In TR-FRET formats the signal depends on donor and acceptor labels being close together.

Experiment [2] has as its target EGFR Del19/T790M/C797S (Homo sapiens, UniProt P00533, C797S/DEL746-750/T790M). Description: Biochemical EGFR kinase inhibition assay (Lance Ultra TR-FRET), triple mutant del19/T790M/C797S. In short, it runs like this: as §1
In experiment [3] the target is EGFR wildtype (WT) (Homo sapiens, UniProt P00533). As to the kind of experiment: Biochemical EGFR kinase inhibition assay (Lance Ultra TR-FRET), wildtype. In short, it runs like this:
as §1

In experiment [4] the target is EGFR L858R/T790M/C797S (Homo sapiens, UniProt P00533, C797S/L858R/T790M). Description: Biochemical EGFR kinase inhibition assay (Lance Ultra TR-FRET), triple mutant L858R/T790M/C797S. In short, it runs like this:
as §1

In experiment [5] the target is EGFR L858R/C797S (Homo sapiens, UniProt P00533, C797S/L858R). Description: Biochemical EGFR kinase inhibition assay (Lance Ultra TR-FRET), double mutant L858R/C797S. In short, it runs like this:
as §1

The mark [6] stands for this setting: IC50 Del19/C797S (nM), 100 μM ATP.
Setting [7] is: Km ATP, read-out: IC50 Del19/C797S (nM) Km ATP.
The mark [8] stands for this setting: IC50 Del19/T790M/C797S (nM), 100 μM ATP.
Setting [9] is: Km ATP, read-out: IC50 Del19/T790M/C797S (nM) Km ATP.
[10] abbreviates: Km ATP, read-out: IC50 WT (nM) Km ATP.
The mark [11] stands for this setting: IC50 L858R/T790M/C797S (nM), 100 μM ATP.
[12] abbreviates: Km ATP, read-out: IC50 L858R/T790M/C797S (nM) Km ATP.
Setting [13] is: IC50 L858R/C797S (nM), 100 μM ATP.
The mark [14] stands for this setting: Km ATP, read-out: IC50 L858R/C797S (nM) Km ATP.
Setting [15] is: ATP at Km, read-out: IC50 Del19/C797S (nM), Km ATP.
The mark [16] stands for this setting: ATP at Km, read-out: IC50 Del19/T790M/C797S (nM), Km ATP.
Setting [17] is: ATP at Km, read-out: IC50 WT (nM), Km ATP.
The mark [18] stands for this setting: ATP at Km, read-out: IC50 L858R/T790M/C797S (nM), Km ATP.
Where [19] appears, read: ATP at Km, read-out: IC50 L858R/C797S (nM), Km ATP.

Where two headings read alike, the source gives them in different places. Where only a bound is given, the exact number is not on record here.

Chain of EGFR Del19/C797S (P00533 with tags, fused parts or gaps DEL746-750/C797S): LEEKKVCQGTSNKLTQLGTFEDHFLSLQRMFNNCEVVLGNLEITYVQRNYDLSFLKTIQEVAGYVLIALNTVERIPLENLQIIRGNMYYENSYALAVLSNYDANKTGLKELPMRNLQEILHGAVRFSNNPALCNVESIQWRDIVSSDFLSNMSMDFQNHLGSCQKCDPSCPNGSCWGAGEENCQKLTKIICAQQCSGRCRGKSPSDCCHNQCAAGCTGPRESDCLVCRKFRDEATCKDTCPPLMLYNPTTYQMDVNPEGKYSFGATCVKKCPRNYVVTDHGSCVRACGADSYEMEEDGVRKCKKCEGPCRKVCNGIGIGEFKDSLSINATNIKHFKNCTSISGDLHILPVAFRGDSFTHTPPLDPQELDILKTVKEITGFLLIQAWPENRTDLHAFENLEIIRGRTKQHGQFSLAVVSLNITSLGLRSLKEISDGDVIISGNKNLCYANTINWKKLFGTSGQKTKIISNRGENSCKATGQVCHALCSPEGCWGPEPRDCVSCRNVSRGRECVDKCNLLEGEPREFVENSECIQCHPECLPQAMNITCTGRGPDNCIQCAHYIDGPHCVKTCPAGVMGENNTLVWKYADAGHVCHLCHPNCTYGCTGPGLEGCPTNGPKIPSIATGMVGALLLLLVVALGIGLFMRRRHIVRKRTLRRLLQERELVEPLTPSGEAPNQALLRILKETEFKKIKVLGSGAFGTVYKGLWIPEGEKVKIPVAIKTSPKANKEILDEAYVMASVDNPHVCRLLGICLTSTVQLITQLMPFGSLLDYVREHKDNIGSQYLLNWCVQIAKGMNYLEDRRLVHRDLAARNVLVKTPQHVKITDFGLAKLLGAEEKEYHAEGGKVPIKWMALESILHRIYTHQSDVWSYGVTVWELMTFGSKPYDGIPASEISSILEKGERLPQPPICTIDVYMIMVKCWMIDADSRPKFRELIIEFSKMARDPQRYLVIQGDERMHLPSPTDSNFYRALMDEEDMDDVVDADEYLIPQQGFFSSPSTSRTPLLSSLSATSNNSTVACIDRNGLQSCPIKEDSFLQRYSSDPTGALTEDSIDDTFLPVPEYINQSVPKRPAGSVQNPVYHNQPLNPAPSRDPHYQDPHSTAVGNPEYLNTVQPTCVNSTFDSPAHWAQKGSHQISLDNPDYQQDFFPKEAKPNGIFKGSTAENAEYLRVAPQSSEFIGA
Chain of EGFR Del19/T790M/C797S (P00533 with tags, fused parts or gaps DEL746-750/T790M/C797S): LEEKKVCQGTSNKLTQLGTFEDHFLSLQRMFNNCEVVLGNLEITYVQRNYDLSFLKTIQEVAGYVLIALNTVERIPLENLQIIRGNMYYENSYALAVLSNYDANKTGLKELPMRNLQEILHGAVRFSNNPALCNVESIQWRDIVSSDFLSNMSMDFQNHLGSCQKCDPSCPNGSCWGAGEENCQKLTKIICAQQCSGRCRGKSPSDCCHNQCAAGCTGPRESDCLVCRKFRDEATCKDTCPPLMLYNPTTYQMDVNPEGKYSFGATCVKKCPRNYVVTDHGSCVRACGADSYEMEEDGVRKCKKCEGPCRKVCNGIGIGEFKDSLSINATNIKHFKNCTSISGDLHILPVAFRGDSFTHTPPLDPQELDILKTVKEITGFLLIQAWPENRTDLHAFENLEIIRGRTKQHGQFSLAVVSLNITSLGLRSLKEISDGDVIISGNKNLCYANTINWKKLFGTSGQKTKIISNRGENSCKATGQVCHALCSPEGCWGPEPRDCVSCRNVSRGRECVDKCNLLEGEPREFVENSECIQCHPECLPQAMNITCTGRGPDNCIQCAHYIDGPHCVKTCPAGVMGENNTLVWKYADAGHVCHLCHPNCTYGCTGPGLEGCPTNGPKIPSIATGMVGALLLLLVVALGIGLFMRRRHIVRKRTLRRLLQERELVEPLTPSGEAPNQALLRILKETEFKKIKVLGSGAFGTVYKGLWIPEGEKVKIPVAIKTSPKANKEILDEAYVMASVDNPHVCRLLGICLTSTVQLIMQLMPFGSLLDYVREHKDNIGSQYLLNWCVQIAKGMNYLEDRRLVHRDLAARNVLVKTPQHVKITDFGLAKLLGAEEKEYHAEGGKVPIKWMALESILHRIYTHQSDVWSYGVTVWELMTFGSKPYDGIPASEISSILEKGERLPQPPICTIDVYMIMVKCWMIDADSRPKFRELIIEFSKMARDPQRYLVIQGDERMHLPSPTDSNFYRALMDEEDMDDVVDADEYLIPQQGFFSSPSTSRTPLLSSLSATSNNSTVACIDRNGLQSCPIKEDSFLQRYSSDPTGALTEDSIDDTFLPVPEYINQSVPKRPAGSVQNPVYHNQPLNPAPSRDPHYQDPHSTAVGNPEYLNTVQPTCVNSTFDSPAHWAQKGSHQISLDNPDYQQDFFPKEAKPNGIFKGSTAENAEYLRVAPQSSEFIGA
Chain of EGFR L858R/C797S (P00533 25-1210 C797S/L858R): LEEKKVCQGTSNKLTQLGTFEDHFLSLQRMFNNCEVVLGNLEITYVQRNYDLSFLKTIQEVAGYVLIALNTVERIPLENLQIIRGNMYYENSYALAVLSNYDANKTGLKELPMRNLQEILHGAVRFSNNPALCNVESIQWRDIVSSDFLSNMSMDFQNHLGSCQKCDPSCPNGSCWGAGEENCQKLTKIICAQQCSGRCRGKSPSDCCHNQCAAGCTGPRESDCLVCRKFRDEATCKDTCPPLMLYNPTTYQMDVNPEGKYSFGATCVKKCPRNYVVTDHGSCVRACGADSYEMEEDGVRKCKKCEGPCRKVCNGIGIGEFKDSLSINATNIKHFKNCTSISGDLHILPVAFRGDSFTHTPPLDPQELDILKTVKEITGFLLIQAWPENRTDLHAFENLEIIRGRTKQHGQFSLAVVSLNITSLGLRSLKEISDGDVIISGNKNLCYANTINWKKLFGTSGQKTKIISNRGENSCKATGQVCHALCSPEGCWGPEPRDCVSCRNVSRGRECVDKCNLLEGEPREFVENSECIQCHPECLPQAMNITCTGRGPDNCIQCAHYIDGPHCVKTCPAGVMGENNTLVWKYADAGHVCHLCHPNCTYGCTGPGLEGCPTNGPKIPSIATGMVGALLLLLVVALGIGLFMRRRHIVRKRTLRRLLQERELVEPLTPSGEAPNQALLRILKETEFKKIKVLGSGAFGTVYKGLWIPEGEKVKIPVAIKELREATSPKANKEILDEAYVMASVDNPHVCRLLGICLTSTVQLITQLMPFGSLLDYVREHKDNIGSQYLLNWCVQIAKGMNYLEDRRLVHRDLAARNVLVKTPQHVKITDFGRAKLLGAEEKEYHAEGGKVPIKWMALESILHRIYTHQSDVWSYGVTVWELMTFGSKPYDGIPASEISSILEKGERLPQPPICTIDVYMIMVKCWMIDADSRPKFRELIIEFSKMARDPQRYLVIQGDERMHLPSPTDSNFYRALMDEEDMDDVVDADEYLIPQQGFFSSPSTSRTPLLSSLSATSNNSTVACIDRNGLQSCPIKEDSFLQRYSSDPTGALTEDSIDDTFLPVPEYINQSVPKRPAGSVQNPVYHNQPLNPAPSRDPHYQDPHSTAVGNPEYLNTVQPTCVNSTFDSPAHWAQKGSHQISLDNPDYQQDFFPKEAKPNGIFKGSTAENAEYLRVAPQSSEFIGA
Chain of EGFR wildtype (WT) (P00533 25-1210): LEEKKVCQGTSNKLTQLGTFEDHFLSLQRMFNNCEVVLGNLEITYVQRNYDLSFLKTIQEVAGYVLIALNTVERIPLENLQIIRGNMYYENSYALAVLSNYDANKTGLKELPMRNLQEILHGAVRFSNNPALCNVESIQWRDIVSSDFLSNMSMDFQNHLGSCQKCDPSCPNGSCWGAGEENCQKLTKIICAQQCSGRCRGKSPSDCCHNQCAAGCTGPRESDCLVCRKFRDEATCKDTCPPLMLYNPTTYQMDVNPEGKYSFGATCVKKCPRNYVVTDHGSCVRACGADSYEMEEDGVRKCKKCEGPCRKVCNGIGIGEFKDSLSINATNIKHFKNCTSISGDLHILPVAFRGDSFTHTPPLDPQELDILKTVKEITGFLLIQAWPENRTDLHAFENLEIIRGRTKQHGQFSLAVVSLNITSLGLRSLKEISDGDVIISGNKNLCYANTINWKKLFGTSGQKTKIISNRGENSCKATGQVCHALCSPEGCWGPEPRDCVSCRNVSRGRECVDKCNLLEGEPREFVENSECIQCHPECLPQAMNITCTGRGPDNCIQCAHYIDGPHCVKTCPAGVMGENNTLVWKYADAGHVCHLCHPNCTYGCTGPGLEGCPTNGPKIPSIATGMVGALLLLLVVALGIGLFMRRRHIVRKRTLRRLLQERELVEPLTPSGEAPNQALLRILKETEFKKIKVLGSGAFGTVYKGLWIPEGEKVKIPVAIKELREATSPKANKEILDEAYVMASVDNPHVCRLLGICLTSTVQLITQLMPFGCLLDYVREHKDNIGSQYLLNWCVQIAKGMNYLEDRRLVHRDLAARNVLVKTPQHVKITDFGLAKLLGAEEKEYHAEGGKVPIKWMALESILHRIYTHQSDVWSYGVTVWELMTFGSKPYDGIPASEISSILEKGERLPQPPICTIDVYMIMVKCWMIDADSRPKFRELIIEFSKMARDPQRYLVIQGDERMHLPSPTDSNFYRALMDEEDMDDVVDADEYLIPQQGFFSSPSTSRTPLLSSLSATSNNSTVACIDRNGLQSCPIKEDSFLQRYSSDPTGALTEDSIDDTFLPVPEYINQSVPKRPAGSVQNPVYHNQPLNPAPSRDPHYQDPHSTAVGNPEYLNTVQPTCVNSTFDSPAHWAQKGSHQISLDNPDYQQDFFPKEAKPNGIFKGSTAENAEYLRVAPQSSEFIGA

With `CN1CC(n2cc(C#Cc3cnc(Nc4ccnc(-c5cnn(S(=O)(=O)C6CC6)c5)n4)cc3N3CCC(C)(CO)CC3)cn2)C1` [Example 148, (1-(2-((2-(1-(Cyclopropylsulfonyl)-1H-pyrazol-4-yl)pyrimidin-4-yl)amino)-5-((1-(1-methylazetidin-3-yl)-1H-pyrazol-4-yl)ethynyl)pyridin-4-yl)-4-methylpiperidin-4-yl)methanol], the IC50 was found to be 0.3 nM in experiment [1] (setting [6]); 0.2 nM in experiment [1] (setting [7]); 0.3 nM in experiment [2] (setting [8]); 0.2 nM in experiment [2] (setting [9]); 47 nM in experiment [3] (IC50 WT (nM), 100 μM ATP); 0.4 nM in experiment [3] (setting [10]). The IC50 in experiment [4] (setting [11]) was 0.2 nM; in experiment [4] (setting [12]), 0.1 nM; in experiment [5] (setting [13]) it was 0.6 nM; in experiment [5] (setting [14]), 0.2 nM.
Take `O=S(=O)(C1CC1)n1cc(-c2nccc(Nc3cc(N[C@H]4CC[C@@H](O)CC4)c(C#Cc4ncc(CN5CCOCC5)cn4)cn3)n2)cn1` [Example 194, (1s,4s)-4-((2-((2-(1-(Cyclopropylsulfonyl)-1H-pyrazol-4-yl)pyrimidin-4-yl)amino)-5-((5-(morpholinomethyl)pyrimidin-2-yl)ethynyl)pyridin-4-yl)amino)cyclohexan-1-ol]: the IC50 in experiment [1] (setting [15]) is 2.2 nM; in experiment [1] (setting [6]), 3.3 nM; in experiment [2] (setting [16]), 0.5 nM; in experiment [2] (setting [8]), 0.5 nM; in experiment [3] (setting [17]) it was 26.1 nM; in experiment [3] (IC50 WT (nM), 100 μM ATP), more than 10000 nM. Besides, the IC50 in experiment [4] (setting [18]) turned out to be 0.2 nM; in experiment [4] (setting [11]), 0.7 nM; in experiment [5] (setting [19]), 3.4 nM; in experiment [5] (setting [13]), 169 nM.
On to `CC(C)n1cc(C#Cc2cnc(Nc3ccnc(-c4cnn(S(=O)(=O)C5CC5)c4)n3)cc2OC[C@H]2CC[C@H](CN(C)C)CC2)cn1` [Example 59, 2-(1-(Cyclopropylsulfonyl)-1H-pyrazol-4-yl)-N-(4-(((1r,4r)-4-((dimethylamino)methyl)cyclohexyl)methoxy)-5-((1-isopropyl-1H-pyrazol-4-yl)ethynyl)pyridin-2-yl)pyrimidin-4-amine], for which the IC50 is 2.6 nM in experiment [1] (setting [6]); 1.1 nM in experiment [1] (setting [7]); 1.4 nM in experiment [2] (setting [8]); 0.6 nM in experiment [2] (setting [9]); more than 10000 nM in experiment [3] (IC50 WT (nM), 100 μM ATP); 19.2 nM in experiment [3] (setting [10]). In addition, the IC50 was found to be 0.7 nM in experiment [4] (setting [11]), 0.1 nM in experiment [4] (setting [12]) and 1.7 nM in experiment [5] (setting [14]).
For `Cn1cc(C#Cc2cnc(Nc3ccnc(-c4cnn(S(=O)(=O)C5CC5)c4)n3)cc2N2CCCC(O)CC2)cn1` (stereo not shown) [Example 77, 1-(2-((2-(1-(Cyclopropylsulfonyl)-1H-pyrazol-4-yl)pyrimidin-4-yl)amino)-5-((1-methyl-1H-pyrazol-4-yl)ethynyl)pyridin-4-yl)azepan-4-ol], the IC50 in experiment [1] (setting [6]) was 6.3 nM; in experiment [1] (setting [7]), 5 nM; in experiment [2] (setting [8]), 0.6 nM; in experiment [2] (setting [9]) it was 0.9 nM; in experiment [3] (IC50 WT (nM), 100 μM ATP) it was more than 10000 nM; in experiment [3] (setting [10]), 97 nM. Besides, the IC50 in experiment [4] (setting [11]) turned out to be 3.6 nM; in experiment [4] (setting [12]), 0.5 nM; in experiment [5] (setting [13]), 357 nM; in experiment [5] (setting [14]), 14.1 nM.
For `Cn1cc(C#Cc2cnc(Nc3ccnc(-c4cnn(S(=O)(=O)C5CC5)c4)n3)cc2N2CCC(F)(CO)CC2)cn1` [Example 73, (1-(2-((2-(1-(Cyclopropylsulfonyl)-1H-pyrazol-4-yl)pyrimidin-4-yl)amino)-5-((1-methyl-1H-pyrazol-4-yl)ethynyl)pyridin-4-yl)-4-fluoropiperidin-4-yl)methanol], the IC50 in experiment [1] (setting [6]) is 2.8 nM; in experiment [2] (setting [8]), 0.4 nM; in experiment [3] (IC50 WT (nM), 100 μM ATP), 7550 nM; in experiment [4] (setting [11]) it was 1.2 nM; in experiment [5] (setting [13]), 6.6 nM.
For `Cn1cc(C#Cc2cnc(Nc3ccnc(-c4cnn(S(=O)(=O)C5CC5)c4)n3)cc2N2CCC(F)(C(F)(F)F)CC2)cn1` [Example 66, 2-(1-(Cyclopropylsulfonyl)-1H-pyrazol-4-yl)-N-(4-(4-fluoro-4-(trifluoromethyl)piperidin-1-yl)-5-((1-methyl-1H-pyrazol-4-yl)ethynyl)pyridin-2-yl)pyrimidin-4-amine], the IC50 is 114 nM in experiment [1] (setting [6]); 9 nM in experiment [2] (setting [8]); more than 10000 nM in experiment [3] (IC50 WT (nM), 100 μM ATP); 31.1 nM in experiment [4] (setting [11]); 350 nM in experiment [5] (setting [13]).
Taken in the same sequence, the figures for `CC1(CO)CCN(c2cc(Nc3ccnc(-c4cnn(S(=O)(=O)C5CC5)c4)n3)ncc2C#CCC2(O)COC2)CC1` [Example 286, 3-(3-(6-((2-(1-(Cyclopropylsulfonyl)-1H-pyrazol-4-yl)pyrimidin-4-yl)amino)-4-(4-(hydroxymethyl)-4-methylpiperidin-1-yl)pyridin-3-yl)prop-2-yn-1-yl)oxetan-3-ol] were 2.2 nM, 0.1 nM, 4300 nM, 0.4 nM and 13.5 nM.
On to `O=S(=O)(C1CC1)n1cc(-c2nccc(Nc3cc(N[C@H]4CC[C@@H](O)CC4)c(C#CC4(O)CCCC4)cn3)n2)cn1` [Example 176, (1s,4s)-4-((2-((2-(1-(Cyclopropylsulfonyl)-1H-pyrazol-4-yl)pyrimidin-4-yl)amino)-5-((1-hydroxycyclopentyl)ethynyl)pyridin-4-yl)amino)cyclohexan-1-ol], for which the IC50 in experiment [1] (setting [15]) is 3 nM; in experiment [1] (setting [6]), 3.6 nM; in experiment [2] (setting [16]), 0.5 nM; in experiment [2] (setting [8]) it was 0.4 nM; in experiment [3] (setting [17]), 40.1 nM; in experiment [3] (IC50 WT (nM), 100 μM ATP) it was more than 10000 nM. Also, the IC50 in experiment [4] (setting [18]) was found to be 0.3 nM; in experiment [4] (setting [11]) it was 0.8 nM; in experiment [5] (setting [19]), 14.2 nM; in experiment [5] (setting [13]), 104 nM.
On to `O=S(=O)(C1CC1)n1cc(-c2nccc(Nc3cc(N[C@@H]4CCC[C@H](O)C4)c(C#Cc4ccc(CN5CCOCC5)cc4)cn3)n2)cn1` [Example 160, (1S,3R)-3-((2-((2-(1-(Cyclopropylsulfonyl)-1H-pyrazol-4-yl)pyrimidin-4-yl)amino)-5-((4-(morpholinomethyl)phenyl)ethynyl)pyridin-4-yl)amino)cyclohexan-1-ol], for which the IC50 was 4.1 nM in experiment [1] (setting [15]); 10.1 nM in experiment [1] (setting [6]); 5.7 nM in experiment [2] (setting [16]); 7.3 nM in experiment [2] (setting [8]); 64.8 nM in experiment [3] (setting [17]); more than 10000 nM in experiment [3] (IC50 WT (nM), 100 μM ATP). In addition, the IC50 in experiment [4] (setting [18]) was determined as 2.5 nM; in experiment [4] (setting [11]), 6.2 nM; in experiment [5] (setting [19]), 3.8 nM; in experiment [5] (setting [13]), 65.6 nM.
Regarding `Cn1cc(C#Cc2cnc(Nc3ccnc(-c4cnn(S(=O)(=O)C5CC5)c4)n3)cc2N2CCCC(CO)CC2)cn1` (stereo not shown) [Example 78, (1-(2-((2-(1-(Cyclopropylsulfonyl)-1H-pyrazol-4-yl)pyrimidin-4-yl)amino)-5-((1-methyl-1H-pyrazol-4-yl)ethynyl)pyridin-4-yl)azepan-4-yl)methanol], the IC50 was 12.4 nM in experiment [1] (setting [6]); 10.4 nM in experiment [1] (setting [7]); 1.3 nM in experiment [2] (setting [8]); 1.6 nM in experiment [2] (setting [9]); more than 10000 nM in experiment [3] (IC50 WT (nM), 100 μM ATP); 163 nM in experiment [3] (setting [10]). Moreover, the IC50 was 5.9 nM in experiment [4] (setting [11]), 0.7 nM in experiment [4] (setting [12]), 563 nM in experiment [5] (setting [13]) and 22.1 nM in experiment [5] (setting [14]).
Consider `O=S(=O)(C1CC1)n1cc(-c2nccc(Nc3cc(N[C@H]4CC[C@@H](O)CC4)c(C#Cc4cnn(CC(F)(F)F)c4)cn3)n2)cn1` [Example 339, (1s,4s)-4-((2-((2-(1-(Cyclopropylsulfonyl)-1H-pyrazol-4-yl)pyrimidin-4-yl)amino)-5-((1-(2,2,2-trifluoroethyl)-1H-pyrazol-4-yl)ethynyl)pyridin-4-yl)amino)cyclohexan-1-ol], for which the IC50 in experiment [1] (setting [6]) was 7.5 nM; in experiment [1] (Km ATP, read-out: IC50 Del19/C797S (nM), Km ATP), 3.8 nM; in experiment [2] (setting [8]) it was 0.9 nM; in experiment [2] (Km ATP, read-out: IC50 Del19/T790M/C797S (nM), Km ATP), 1 nM; in experiment [3] (IC50 WT (nM), 100 μM ATP) it was more than 10000 nM; in experiment [3] (Km ATP, read-out: IC50 WT (nM), Km ATP) it was 18.2 nM. The IC50 was found to be 1 nM in experiment [4] (setting [11]); 0.5 nM in experiment [4] (Km ATP, read-out: IC50 L858R/T790M/C797S (nM), Km ATP); 29.7 nM in experiment [5] (setting [13]); 4.9 nM in experiment [5] (Km ATP, read-out: IC50 L858R/C797S (nM), Km ATP).
